In ChEMBL document CHEMBL1127782, “Non-peptidic inhibitors of human leukocyte elastase. 1. The design and synthesis of pyridone-containing inhibitors” (J Med Chem, 1994):

These compounds were tested against T1, Neutrophil elastase (Homo sapiens, UniProt P08246) (assay: The compound was tested in vitro for ability to inhibit human leukocyte elastase activity).
T1 sequence (P08246 whole entry): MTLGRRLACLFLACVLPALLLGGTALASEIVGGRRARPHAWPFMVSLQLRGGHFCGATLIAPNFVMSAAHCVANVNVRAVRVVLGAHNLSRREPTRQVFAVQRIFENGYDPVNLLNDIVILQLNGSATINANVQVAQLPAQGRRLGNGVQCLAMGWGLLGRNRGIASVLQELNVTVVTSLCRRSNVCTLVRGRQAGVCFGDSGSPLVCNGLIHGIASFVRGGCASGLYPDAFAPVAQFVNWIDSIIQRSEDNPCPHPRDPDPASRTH

Row | SMILES | Ki [nM]
1 | CC(C)C(NC(=O)Cn1cc(Cc2ccccc2)cc(NC(=O)C(N)=O)c1=O)C(=O)C(F)(F)F (configuration not stated) | 51
2 | CCOC(=O)CC(=O)Nc1cccn(CC(=O)NC(C(=O)C(F)(F)F)C(C)C)c1=O (configuration not stated) | 3400
3 | CC(C)C(NC(=O)Cn1cccc(NC(=O)CC(=O)O)c1=O)C(=O)C(F)(F)F (configuration not stated) | 2600
4 | CC(C)C(NC(=O)Cn1cccc(NC(=O)OCc2ccccc2)c1=O)C(=O)C(F)(F)F (configuration not stated) | 280
5 | CC(C)C(NC(=O)Cn1cccc([N+](=O)[O-])c1=O)C(=O)C(F)(F)F (configuration not stated) | 15000
6 | CC(C)C(NC(=O)Cn1cccc(NC(=O)C(=O)O)c1=O)C(=O)C(F)(F)F (configuration not stated) | 350
7 | COC(=O)C(=O)Nc1cccn(CC(=O)NC(C(=O)C(F)(F)F)C(C)C)c1=O (configuration not stated) | 500
8 | CC(C)C(NC(=O)Cn1cccc(N)c1=O)C(=O)C(F)(F)F (configuration not stated) | 2700
9 | CC(C)C(NC(=O)Cn1cc(Cc2ccccc2)cc(NC(=O)C(=O)O)c1=O)C(=O)C(F)(F)F (configuration not stated) | 48
10 | CC(C)C(NC(=O)Cn1cccc(NC(=O)C(N)=O)c1=O)C(=O)C(F)(F)F (configuration not stated) | 320

Further lines, results first:

Row | Ki [nM] | SMILES
11 | 36 | CC(C)C(NC(=O)Cn1cc(Cc2cccc(NC(=O)C(F)(F)F)c2)cc(NC(=O)OCc2ccccc2)c1=O)C(=O)C(F)(F)F (configuration not stated)
12 | 12 | CC(C)C(NC(=O)Cn1cc(Cc2cccc(OC(=O)C(C)(C)C)c2)cc(NC(=O)OCc2ccccc2)c1=O)C(=O)C(F)(F)F (configuration not stated)
13 | 70 | COC(=O)C(=O)Nc1cc(Cc2ccccc2)cn(CC(=O)NC(C(=O)C(F)(F)F)C(C)C)c1=O (configuration not stated)
14 | 71 | CC(C)C(NC(=O)Cn1cc(Cc2ccc(F)cc2)cc(NC(=O)OCc2ccccc2)c1=O)C(=O)C(F)(F)F (configuration not stated)
15 | 88 | COC(=O)c1ccc(Cc2cc(NC(=O)OCc3ccccc3)c(=O)n(CC(=O)NC(C(=O)C(F)(F)F)C(C)C)c2)cc1 (configuration not stated)
16 | 32 | CC(C)C(NC(=O)Cn1cc(Cc2ccc(OC(=O)C(C)(C)C)cc2)cc(NC(=O)OCc2ccccc2)c1=O)C(=O)C(F)(F)F (configuration not stated)
17 | 40 | CC(C)C(NC(=O)Cn1cc(Cc2ccccc2)cc(NC(=O)OCc2ccccc2)c1=O)C(=O)C(F)(F)F (configuration not stated)
18 | 42 | CC(=O)Oc1cccc(Cc2cc(NC(=O)OCc3ccccc3)c(=O)n(CC(=O)NC(C(=O)C(F)(F)F)C(C)C)c2)c1 (configuration not stated)
19 | 89 | CC(C)C(NC(=O)Cn1cc(Cc2cccc(O)c2)cc(NC(=O)OCc2ccccc2)c1=O)C(=O)C(F)(F)F (configuration not stated)
20 | 34 | CC(C)C(NC(=O)Cn1cc(Cc2ccc(O)cc2)cc(NC(=O)OCc2ccccc2)c1=O)C(=O)C(F)(F)F (configuration not stated)
21 | 47 | CC(C)C(NC(=O)Cn1cc(Cc2ccc(C(F)(F)F)cc2)cc(NC(=O)OCc2ccccc2)c1=O)C(=O)C(F)(F)F (configuration not stated)
22 | 87 | CC(C)C(NC(=O)Cn1cc(Cc2cccc(F)c2)cc(NC(=O)OCc2ccccc2)c1=O)C(=O)C(F)(F)F (configuration not stated)
